Data from patent US10065941B2, “Aminotriazine derivative and pharmaceutical composition comprising the same” (Shionogi & Co., Ltd., priority 2013, dated 2018).

Target: human P2X3 receptor (Homo sapiens (Human), UniProt P56373)
Assay: Evaluation of human P2X3 receptor inhibitory activity (Test Example 1)
Type: cell-based
Conditions: C6BU-1 cell transfected with human P2X3 receptor gene, FLIPR 384
Procedure, shortened: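 C6BU-1 cells stably expressing human P2X3, loaded with 4 μM Fluo-3-AM 1 h at 37 °C, preincubated 5 min with test compound, then stimulated with 150 nM ATP solution (stock, pre-dispense) and monitored by FLIPR for 4 min. IC50 derived from maximum fluorescence ratio (post-ATP peak over baseline).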

Sequence of human P2X3 receptor (P56373 whole entry): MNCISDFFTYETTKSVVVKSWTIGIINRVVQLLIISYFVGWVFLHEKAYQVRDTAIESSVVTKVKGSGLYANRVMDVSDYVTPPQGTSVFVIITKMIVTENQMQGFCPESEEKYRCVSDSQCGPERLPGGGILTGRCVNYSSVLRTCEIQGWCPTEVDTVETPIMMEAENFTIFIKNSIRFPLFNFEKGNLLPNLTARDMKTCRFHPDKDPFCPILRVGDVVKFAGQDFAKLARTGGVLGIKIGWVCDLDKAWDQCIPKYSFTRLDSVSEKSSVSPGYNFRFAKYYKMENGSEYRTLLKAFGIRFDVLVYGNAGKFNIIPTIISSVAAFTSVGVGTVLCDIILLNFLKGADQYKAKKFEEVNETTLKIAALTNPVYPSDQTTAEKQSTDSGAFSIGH

Compound | IC50
CC(C)(Cn1c(=O)[nH]/c(=N\c2ccc(Oc3cncc(F)c3)c(F)c2)n(Cc2ccc(Cl)cc2)c1=O)C(=O)O [Compound R-121] | 5 nM
COC(=O)[C@@H](C)Cn1c(=O)[nH]/c(=N\c2ccc(Oc3cccc(OC)n3)cc2)n(Cc2ccc(C)cc2)c1=O [Compound I-221] | 11 nM
COC(=O)C(C)(C)Cn1c(=O)[nH]/c(=N\c2ccc(Oc3ccc(F)cn3)cc2)n(Cc2ccc(Cl)cc2)c1=O [Compound I-003] | 7 nM
COC(=O)[C@H](C)[C@H](C)n1c(=O)[nH]/c(=N\c2ccc(Oc3cccc(Cl)n3)cc2)n(Cc2ccc(Cl)cc2)c1=O [Compound I-013] | 58 nM
Cc1nc(Oc2ccc(/N=c3\[nH]c(=O)n(C[C@H](C)C(=O)O)c(=O)n3Cc3ccc(Cl)cc3)cc2)no1 [Compound R-114] | 39 nM
COC(=O)[C@@H](C)Cn1c(=O)[nH]/c(=N\c2ccc(Oc3cccc(CF)n3)cc2)n(Cc2ccc(C)cc2)c1=O [Compound I-266] | 8 nM
Cc1ccc(Cn2c(=O)n(CC(C)(C)C(=O)O)c(=O)[nH]/c2=N\c2ccc(Oc3ncccc3Cl)cc2)cc1 [Compound I-118] | 9 nM
COC(=O)[C@@H](C)Cn1c(=O)[nH]/c(=N\c2ccc(OC3CCC3)c(F)c2)n(Cc2ccc(Cl)cc2)c1=O [Compound R-072] | 16 nM
COC(=O)C(C)(C)Cn1c(=O)[nH]/c(=N\c2ccc(Oc3cnccn3)c(F)c2)n(Cc2ccc(Cl)cc2)c1=O [Compound R-049] | 8 nM
CC(C)(Cn1c(=O)[nH]/c(=N\c2ccc(N3CCCCC3)c(F)c2)n(Cc2ccc(Cl)cc2)c1=O)C(=O)O [Compound R-147] | 51 nM
C[C@@H](Cn1c(=O)[nH]/c(=N\c2ccc(Oc3cccc(F)n3)cc2)n(CC2CCC3(CC2)CC3)c1=O)C(=O)O [Compound I-234] | 7 nM
Cc1ccc(Cn2c(=O)n(C[C@H](C)C(=O)O)c(=O)[nH]/c2=N\c2ccc(Oc3ccc(OC(F)F)cn3)cc2)cc1 [Compound I-135] | 4 nM
C[C@@H](Cn1c(=O)[nH]/c(=N\c2ccc(Oc3cnc(Cl)cn3)cc2)n(Cc2ccc(Cl)cc2)c1=O)C(=O)O [Compound R-014] | 5 nM
COC(=O)C(C)(C)Cn1c(=O)[nH]/c(=N\c2ccc(Oc3ccc(OC(F)F)cn3)cc2)n(Cc2ccc(C)cc2)c1=O [Compound I-133] | 8 nM
COc1cccc(Oc2ccc(/N=c3\[nH]c(=O)n(C[C@H](C)C(=O)O)c(=O)n3Cc3ccc(C)cc3)cc2)n1 [Compound I-218] | 10 nM
COC(=O)[C@@H](C)Cn1c(=O)[nH]/c(=N\c2ccc(Oc3ncccc3F)cc2)n(Cc2ccc(CF)cc2)c1=O [Compound I-207] | 12 nM
COC(=O)C(C)(C)Cn1c(=O)[nH]/c(=N\c2ccc(Oc3ccc(C)nn3)c(F)c2)n(Cc2ccc(Cl)cc2)c1=O [Compound R-175] | 19 nM
C[C@@H](Cn1c(=O)[nH]/c(=N\c2ccc(Oc3cccc(F)n3)cc2)n(Cc2ccc(C(F)F)cc2)c1=O)C(=O)O [Compound I-168] | 12 nM
CC(C)(Cn1c(=O)[nH]/c(=N\c2ccc(Oc3cc(Cl)ccn3)cc2)n(Cc2ccc(Cl)cc2)c1=O)C(=O)O [Compound I-086] | 33 nM
COC(=O)CCn1c(=O)[nH]/c(=N\c2ccc(Oc3ccccn3)c(C)c2)n(Cc2ccc(Cl)cc2)c1=O [Compound R-291] | 6 nM

Compound | IC50
CC(C)(Cn1c(=O)[nH]/c(=N\c2ccc(Oc3cncc(Cl)c3)cc2)n(Cc2ccc(Cl)cc2)c1=O)C(=O)O [Compound R-082] | 7 nM
COC(=O)[C@@H](C)Cn1c(=O)[nH]/c(=N\c2ccc(Oc3cc(Cl)ccn3)cc2)n(Cc2ccc(Cl)cc2)c1=O [Compound I-060] | 24 nM
Cc1ccc(Cn2c(=O)n(CC(C)(C)C(=O)O)c(=O)[nH]/c2=N\c2ccc(Oc3ccc(OC(F)F)cn3)cc2)cc1 [Compound I-136] | 7 nM
COC(=O)[C@H](C)[C@H](C)n1c(=O)[nH]/c(=N\c2ccc(Oc3ncccc3F)cc2)n(Cc2ccc(C)cc2)c1=O [Compound I-095] | 9 nM
C[C@@H](Cn1c(=O)[nH]/c(=N\c2ccc(Oc3ccc(CF)nc3)cc2)n(Cc2ccc(Cl)cc2)c1=O)C(=O)O [Compound I-233] | 6 nM
C[C@@H](Cn1c(=O)[nH]/c(=N\c2ccc(Oc3ncccn3)cc2)n(Cc2ccc(Cl)cc2)c1=O)C(=O)O [Compound R-078] | 10 nM
COC(=O)[C@@H](C)Cn1c(=O)[nH]/c(=N\c2ccc(Oc3ccc(CO)cn3)cc2)n(Cc2ccc(Cl)cc2)c1=O [Compound I-083] | 6 nM
CCc1oc2ccc(/N=c3\[nH]c(=O)[nH]c(=O)n3Cc3ccc(Cl)cc3)cc2c1C [Compound R-173] | 376 nM
Cc1cc(/N=c2\[nH]c(=O)n(C[C@H](C)C(=O)O)c(=O)n2Cc2ccc(Cl)cc2)ccc1Oc1ccccn1 [Compound I-212] | 10 nM
Cc1cc(/N=c2\[nH]c(=O)n([C@@H](C)[C@@H](C)C(=O)O)c(=O)n2Cc2ccc(Cl)cc2)ccc1Oc1ccccn1 [Compound I-220] | 10 nM
CC(C)(Cn1c(=O)[nH]/c(=N\c2ccc(Oc3cc(Cl)ncn3)cc2)n(Cc2ccc(Cl)cc2)c1=O)C(=O)O [Compound R-092] | 10 nM
COC(=O)CCn1c(=O)[nH]/c(=N\c2ccc(Oc3ccccn3)c(Cl)c2)n(Cc2ccc(Cl)cc2)c1=O [Compound R-300] | 8 nM
COC(=O)C(C)(C)Cn1c(=O)[nH]/c(=N\c2ccc(O[C@H](C)C(F)(F)F)c(F)c2)n(Cc2ccc(Cl)cc2)c1=O [Compound R-091] | 108 nM
COC(=O)[C@H](C)[C@H](C)n1c(=O)[nH]/c(=N\c2ccc(Oc3ccc(C)cn3)cc2)n(Cc2ccc(Cl)cc2)c1=O [Compound I-073] | 15 nM
COC(=O)CCn1c(=O)[nH]/c(=N\c2ccc(-n3ccccc3=O)cc2)n(Cc2ccc(Cl)cc2)c1=O [Compound R-227] | 35 nM
Cc1ccc(Cn2c(=O)n(C[C@H](C)C(=O)O)c(=O)[nH]/c2=N\c2ccc(Oc3cccc(Cl)n3)cc2)cc1 [Compound I-119] | 6 nM
COC(=O)[C@@H](C)Cn1c(=O)[nH]/c(=N\c2ccc(Oc3ncc(C)s3)cc2)n(Cc2ccc(Cl)cc2)c1=O [Compound R-132] | 10 nM
N#Cc1ccc(Oc2ccc(/N=c3\[nH]c(=O)n(CC(=O)O)c(=O)n3Cc3ccc(Cl)cc3)cc2)nc1 [Compound R-314] | 48 nM
CC(C)(Cn1c(=O)[nH]/c(=N\c2ccc(Oc3ccc(OC(F)F)cn3)cc2)n(Cc2ccc(Cl)cc2)c1=O)C(=O)O [Compound I-023] | 7 nM
COC(=O)C(C)(C)Cn1c(=O)[nH]/c(=N\c2ccc(Oc3ccc(F)cn3)cc2)n(Cc2ccc(C)cc2)c1=O [Compound I-037] | 6 nM

Compound | IC50
Cc1cnc(Oc2ccc(/N=c3\[nH]c(=O)n([C@@H](C)[C@@H](C)C(=O)O)c(=O)n3Cc3ccc(Cl)cc3)cc2)s1 [Compound R-183] | 7 nM
C[C@@H](Cn1c(=O)[nH]/c(=N\c2ccc(Oc3ccccn3)cc2)n(Cc2ccc(C(F)F)cc2)c1=O)C(=O)O [Compound I-201] | 13 nM
COC(=O)C(C)(C)Cn1c(=O)[nH]/c(=N\c2ccc(Oc3ccnc(C)n3)cc2)n(Cc2ccc(Cl)cc2)c1=O [Compound R-043] | 5 nM
COC(=O)[C@@H](C)Cn1c(=O)[nH]/c(=N\c2ccc(Oc3cccc(Cl)n3)cc2)n(Cc2ccc(C)cc2)c1=O [Compound I-115] | 6 nM
CCc1ccc(Oc2ccc(/N=c3\[nH]c(=O)n(C[C@H](C)C(=O)OC)c(=O)n3Cc3ccc(Cl)cc3)cc2)nc1 [Compound I-251] | 8 nM
COc1cc(Oc2ccc(/N=c3\[nH]c(=O)n([C@@H](C)[C@@H](C)C(=O)O)c(=O)n3Cc3ccc(Cl)cc3)cc2)cc(F)n1 [Compound R-177] | 5 nM
COC(=O)C(C)(C)Cn1c(=O)[nH]/c(=N\c2ccc(Oc3cnc(Cl)cn3)cc2)n(Cc2ccc(Cl)cc2)c1=O [Compound R-025] | 5 nM
COC(=O)[C@@H](C)[C@@H](C)n1c(=O)[nH]/c(=N\c2ccc(Oc3ccccn3)cc2)n(Cc2ccc(Cl)cc2)c1=O [Compound I-151] | 10 nM
COC(=O)[C@H](C)[C@H](C)n1c(=O)[nH]/c(=N\c2ccc(Oc3cnccn3)cc2)n(Cc2ccc(Cl)cc2)c1=O [Compound R-167] | 11 nM
COC(=O)C(C)(C)Cn1c(=O)[nH]/c(=N\c2ccc(Oc3ncccc3F)cc2)n(Cc2ccc(Cl)cc2)c1=O [Compound I-007] | 9 nM
CC(C)(Cn1c(=O)[nH]/c(=N\c2ccc(Oc3ccnc(Cl)c3)cc2)n(Cc2ccc(Cl)cc2)c1=O)C(=O)O [Compound R-089] | 7 nM
NC(=O)Cn1c(=O)[nH]/c(=N\c2ccc(Oc3ccccn3)cc2)n(Cc2ccc(Cl)cc2)c1=O [Compound R-240, 1-(4-chlorobenzyl)-3-(carbamoylmethyl)-6-[4-(2-pyridyloxy)phenylimino]-1,3,5-triazinane-2,4-dione] | 11 nM
C[C@@H](Cn1c(=O)[nH]/c(=N\c2ccc(O[C@H](C)C(F)(F)F)c(F)c2)n(Cc2ccc(Cl)cc2)c1=O)C(=O)O [Compound R-093] | 13 nM
COC(=O)C(C)(C)Cn1c(=O)[nH]/c(=N\c2ccc(Oc3cncc(C)c3)cc2)n(Cc2ccc(Cl)cc2)c1=O [Compound R-193] | 11 nM
COc1cc(Oc2ccc(/N=c3\[nH]c(=O)n(C[C@H](C)C(=O)O)c(=O)n3Cc3ccc(Cl)cc3)cc2)ccn1 [Compound R-032] | 4 nM
Cc1cnc(Oc2ccc(/N=c3\[nH]c(=O)n(C[C@H](C)C(=O)O)c(=O)n3Cc3ccc(Cl)cc3)cc2)s1 [Compound R-133] | 6 nM
CC(O)c1ccc(Oc2ccc(/N=c3\[nH]c(=O)n(CCC(=O)O)c(=O)n3Cc3ccc(Cl)cc3)cc2)nc1 (stereo not drawn) [Compound R-306] | 14 nM
COC(=O)[C@@H](C)Cn1c(=O)[nH]/c(=N\c2ccc(Oc3cccc(F)n3)cc2)n(Cc2ccc(C)cc2)c1=O [Compound I-053] | 6 nM
COC(=O)[C@@H](C)Cn1c(=O)[nH]/c(=N\c2ccc(Oc3cc(Cl)ncn3)cc2)n(Cc2ccc(Cl)cc2)c1=O [Compound R-046] | 6 nM
CCc1oc2ccc(/N=c3\[nH]c(=O)n(C[C@@H](O)CC(=O)O)c(=O)n3Cc3ccc(Cl)cc3)cc2c1C [Compound R-178] | 45 nM
